Assays:
[1] = tested on: normal NK cells expanded with K562-aAPC; experiment: drug sensitivity score (DSS) (DSS units); higher = more sensitive; extreme values may be limits of the assay; conditions: 72 h; IL-2 2.5 ng/mL
Description: (§1)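 Drug sensitivity and resistance testing on K562-aAPC-expanded normal NK cells: 5 concentrations (10-fold steps over a 10,000-fold range), 72 h at 37 °C, viability by CellTiter-Glo normalised to DMSO and benzethonium chloride controls; DSS from the fitted curve.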

KHYG-1 (IL-2 2.5 ng/mL) [2] = experiment: as above; conditions: 72 h
[3] = tested on: normal primary NK cells, pool 1 (3 donors) (IL-2 2.5 ng/mL); experiment: as above; conditions: 72 h
NK-YS (IL-2 2.5 ng/mL) [4] = experiment: as above; conditions: 72 h
[5] = tested on: normal primary NK cells, pool 3 (3 donors) (IL-2 2.5 ng/mL); experiment: as above; conditions: 72 h
[6] = tested on: normal primary NK cells, pool 1 (3 donors), resting (IL-2 0 ng/mL); experiment: as above; conditions: 72 h
SNK-6 (IL-2 2.5 ng/mL) [7] = experiment: as above; conditions: 72 h
NK-92 (IL-2 2.5 ng/mL) [8] = experiment: as above; conditions: 72 h
DERL-7 (IL-2 2.5 ng/mL) [9] = experiment: as above; conditions: 72 h
KAI3 (IL-2 2.5 ng/mL) [10] = experiment: as above; conditions: 72 h
[11] = tested on: normal primary NK cells, pool 2 (3 donors) (IL-2 2.5 ng/mL); experiment: as above; conditions: 72 h
NKL (IL-2 2.5 ng/mL) [12] = experiment: as above; conditions: 72 h
IMC-1 (IL-2 20 ng/mL) [13] = experiment: as above; conditions: 72 h
YT (IL-2 2.5 ng/mL) [14] = experiment: as above; conditions: 72 h
KHYG-1 (IL-2 2.5 ng/mL) [15] = experiment: percent inhibition of viability; higher = more inhibition; conditions: 72 h
[16] = tested on: normal primary NK cells, pool 1 (3 donors) (IL-2 2.5 ng/mL); experiment: as above; conditions: 72 h
NK-YS (IL-2 2.5 ng/mL) [17] = experiment: as above; conditions: 72 h
[18] = tested on: normal primary NK cells, pool 3 (3 donors) (IL-2 2.5 ng/mL); experiment: as above; conditions: 72 h
[19] = tested on: normal primary NK cells, pool 1 (3 donors), resting (IL-2 0 ng/mL); experiment: as above; conditions: 72 h
SNK-6 (IL-2 2.5 ng/mL) [20] = experiment: as above; conditions: 72 h
NK-92 (IL-2 2.5 ng/mL) [21] = experiment: as above; conditions: 72 h
DERL-7 (IL-2 2.5 ng/mL) [22] = experiment: as above; conditions: 72 h
KAI3 (IL-2 2.5 ng/mL) [23] = experiment: as above; conditions: 72 h
[24] = tested on: normal primary NK cells, pool 2 (3 donors) (IL-2 2.5 ng/mL); experiment: as above; conditions: 72 h
NKL (IL-2 2.5 ng/mL) [25] = experiment: as above; conditions: 72 h
IMC-1 (IL-2 20 ng/mL) [26] = experiment: as above; conditions: 72 h
YT (IL-2 2.5 ng/mL) [27] = experiment: as above; conditions: 72 h
[28] = tested on: normal NK cells expanded with K562-aAPC; experiment: as above; conditions: 72 h, IL-2 2.5 ng/mL
Description: as §1

Cc1c(C(=O)Nc2ccc(N3C[C@@H](C)O[C@@H](C)C3)nc2)cccc1-c1ccc(OC(F)(F)F)cc1 [Sonidegib] (max concentration tested 10000 nM)
Conditions | drug sensitivity score
DERL-7 (IL-2 2.5 ng/mL) [9] | 0
IMC-1 (IL-2 20 ng/mL) [13] | 4.85
KAI3 (IL-2 2.5 ng/mL) [10] | 0.87
KHYG-1 (IL-2 2.5 ng/mL) [2] | 2.43
NK-92 (IL-2 2.5 ng/mL) [8] | 8.23
NK-YS (IL-2 2.5 ng/mL) [4] | 2.3
NKL (IL-2 2.5 ng/mL) [12] | 2.01
SNK-6 (IL-2 2.5 ng/mL) [7] | 10.6
YT (IL-2 2.5 ng/mL) [14] | 2.89
[1] | 0.28
[3] | 0
[5] | 0
[6] | 0
[11] | 0

percent inhibition of viability [%]
Conditions | 1 nM | 10 nM | 100 nM | 1000 nM | 10000 nM
DERL-7 (IL-2 2.5 ng/mL) [22] | -6.39 | 0.97 | 3.22 | 7.44 | 7.71
IMC-1 (IL-2 20 ng/mL) [26] | -2.05 | 0.95 | 10.7 | 7.33 | 66.2
KAI3 (IL-2 2.5 ng/mL) [23] | -9.76 | 2.17 | -0.83 | -2.67 | 26.2
KHYG-1 (IL-2 2.5 ng/mL) [15] | 1.09 | -0.52 | 4.83 | 5.39 | 33.4
NK-92 (IL-2 2.5 ng/mL) [21] | 5.8 | 1.52 | 11.2 | 33.5 | 79.3
NK-YS (IL-2 2.5 ng/mL) [17] | -0.38 | 2.73 | 7.41 | 11.1 | 31.1
NKL (IL-2 2.5 ng/mL) [25] | -6.67 | 3.73 | -0.64 | 6.28 | 26.8
SNK-6 (IL-2 2.5 ng/mL) [20] | 4.68 | 24.7 | 23.1 | 15.3 | 25.6
YT (IL-2 2.5 ng/mL) [27] | 1.1 | 5.23 | 7.91 | 6.65 | 37
[16] | 2.22 | -1.01 | 1.87 | -6.02 | -0.78
[18] | -16.4 | -5.96 | 3.9 | -2.57 | -0.38
[19] | 7.84 | -5.48 | 2.43 | -23.8 | -13.6
[24] | -5.58 | -3.94 | 1.51 | -3.08 | -2.7
[28] | -1.35 | -1.33 | -0.97 | 6.62 | 11.9

CNC(=O)c1cc(Oc2ccc(NC(=O)Nc3ccc(Cl)c(C(F)(F)F)c3)cc2)ccn1 [Sorafenib] (max concentration tested 1000 nM)
Conditions | drug sensitivity score
DERL-7 (IL-2 2.5 ng/mL) [9] | 1.11
IMC-1 (IL-2 20 ng/mL) [13] | 0
KAI3 (IL-2 2.5 ng/mL) [10] | 0
KHYG-1 (IL-2 2.5 ng/mL) [2] | 0
NK-92 (IL-2 2.5 ng/mL) [8] | 0.73
NK-YS (IL-2 2.5 ng/mL) [4] | 0
NKL (IL-2 2.5 ng/mL) [12] | 0
SNK-6 (IL-2 2.5 ng/mL) [7] | 3.94
YT (IL-2 2.5 ng/mL) [14] | 0
[1] | 0
[3] | 0
[5] | 0
[6] | 1.53
[11] | 0

percent inhibition of viability [%]
Conditions | 0.1 nM | 1 nM | 10 nM | 100 nM | 1000 nM
DERL-7 (IL-2 2.5 ng/mL) [22] | -14.3 | 2.59 | 4.15 | 1.1 | 25.2
IMC-1 (IL-2 20 ng/mL) [26] | -6.25 | -2.7 | -8.4 | -3.64 | -1.65
KAI3 (IL-2 2.5 ng/mL) [23] | 2.87 | 5.97 | 0.72 | 2.84 | -4.41
KHYG-1 (IL-2 2.5 ng/mL) [15] | -1.09 | 0 | -1.1 | 2.71 | -0.82
NK-92 (IL-2 2.5 ng/mL) [21] | -2.2 | -1.4 | -3.13 | -5.91 | 25.7
NK-YS (IL-2 2.5 ng/mL) [17] | -0.65 | -1.62 | -0.99 | 3.14 | 5.95
NKL (IL-2 2.5 ng/mL) [25] | -18.1 | -17.9 | -14.8 | -9.31 | -11.3
SNK-6 (IL-2 2.5 ng/mL) [20] | 9.25 | 14.7 | 5.19 | 17.7 | 30.7
YT (IL-2 2.5 ng/mL) [27] | -0.23 | -2.47 | 0.91 | 1.22 | 3.17
[16] | -10 | -8.22 | -3.22 | -10.4 | -2.85
[18] | -4.53 | -9.01 | -3.28 | -8.55 | -2.67
[19] | -6.78 | -15.6 | 0.71 | 9.47 | 20.5
[24] | -8.52 | -3.3 | -11.4 | -7 | -14.1
[28] | -0.62 | -4.84 | 0.63 | -4.73 | -7.05

From the supplement of paper PMC5908809
